Data: US9200001B2, “Triazolyl PDE10 inhibitors” (Merck Sharp & Dohme Corp., priority 2011, dated 2015)

molecular target: human PDE10A2 (Homo sapiens (Human), UniProt Q9Y233); test: PDE10 fluorescence polarization (IMAP FP) inhibition assay; format: biochemical; settings: FAM-labeled cAMP 50 nM, room temperature, read-out: PDE10a Ki
Procedure: The activity of the compounds in accordance with the present invention as PDE10 inhibitors may be readily determined without undue experimentation using a fluorescence polarization (FP) methodology that is well known in the art (Huang, W., et al., J. Biomol Screen, 2002, 7: 215).
In a typical experiment the PDE10 inhibitory activity of the compounds of the present invention was determined in accordance with the following experimental method. PDE10A2 was amplified from human fetal brain cDNA (Clontech, Mountain View, Calif.) using a forward primer corresponding to nucleotides 56-77 of human PDE10A2 (Accession No. AF127480, Genbank Identifier 4894716), containing a Kozak consensus sequence, and a reverse primer corresponding to nucleotides 2406-2413 of human PDE10A2 (Accession No. AF127480, Genbank Identifier 4894716). Amplification with Easy-A polymerase (Stratagene, La Jolla, Calif.) was 95° C. for 2 minutes followed by thirty three cycles of 95° C. for 40 seconds, 55° C. for 30 seconds, and 72° C. for 2 minutes 48 seconds. Final extension was 72° C. for 7 minutes. The PCR product was TA cloned into pcDNA3.2-TOPO (Invitrogen, Carlsbad, Calif.) according to standard protocol. AD293 cells with 70-80% confluency were transiently transfected with human PDE10A2/pcDNA3.2-TOPO using Lipofectamine 2000 according to manufacturer specifications (Invitrogen, Carlsbad, Calif.). Cells were harvested 48 hours post-transfection and lysed by sonication (setting 3, 10×5 sec pulses) in a buffer containing 20 mM HEPES, 1 mM EDTA and protease inhibitor cocktail (Roche). Lysate was collected by centrifugation at 75,000×g for 20 minutes. Supernatant containing the cytoplasmic fraction was used for evaluation of PDE10A2 activity. The fluorescence polarization assay for cyclic nucleotide phosphodiesterases was performed using an IMAP® FP kit supplied by Molecular Devices, Sunnyvale, Calif. (product # R8139). IMAP® technology has been applied previously to phosphodiesterase assays (Huang, W., et al., J. Biomol Screen, 2002, 7: 215). Assays were performed at room temperature in 384-well microtiter plates with an incubation volume of 20.2 μL. Solutions of test compounds were prepared in DMSO and serially diluted with DMSO to yield 8 μL of each of 10 solutions differing by 3-fold in concentration, at 32 serial dilutions per plate. 100% inhibition is determined using a known PDE10 inhibitor, which can be any compound that is present at 5,000 times its Ki value in the assay described as follows, such as papaverine (see Siuciak, et al. Neuropharmacology (2006) 51:386-396; Becker, et al. Behav Brain Res (2008) 186(2):155-60; Threlfell, et al., J Pharmacol Exp Ther (2009) 328(3):785-795), 2-{4-[pyridin-4-yl-1-(2,2,2-trifluoroethyl)-1H-pyrazol-3-yl]phenoxymethyl}quinoline succinic acid or 2-[4-(1-methyl-4-pyridin-4-yl-1H-pyrazol-3-yl)-phenoxymethyl]quinoline succinic acid (see Schmidt, et al. J Pharmacol Exp Ther (2008) 325:681-690; Threlfall, et al., J Pharmacol Exp Ther (2009) 328(3): 785-795). 0% of inhibition is determined by using DMSO (1% final concentrations).
A Labcyte Echo 555 (Labcyte, Sunnyvale, Calif.) is used to dispense 200 nL from each well of the titration plate to the 384 well assay plate. A solution of enzyme (1/1600 dilution from aliquots; sufficient to produce 20% substrate conversion) and a separate solution of FAM-labeled cAMP PDE from Molecular Devices (product # R7506), at a final concentration of 50 nM are made in the assay buffer (10 mM Tris HCl, pH 7.2, 10 mM MgCl2, 0.05% NaN3 0.01% Tween-20, and 1 mM DTT). The enzyme and the substrate are then added to the assay plates in two consecutive additions of 10 μL, and then shaken to mix. The reaction is allowed to proceed at room temperature for 30 minutes. A binding solution is then made from the kit components, comprised of 80% Solution A, 20% Solution B and binding reagent at a volume of 1600 the total binding solution. […]

Chain of human PDE10A2 (Q9Y233 267-1055): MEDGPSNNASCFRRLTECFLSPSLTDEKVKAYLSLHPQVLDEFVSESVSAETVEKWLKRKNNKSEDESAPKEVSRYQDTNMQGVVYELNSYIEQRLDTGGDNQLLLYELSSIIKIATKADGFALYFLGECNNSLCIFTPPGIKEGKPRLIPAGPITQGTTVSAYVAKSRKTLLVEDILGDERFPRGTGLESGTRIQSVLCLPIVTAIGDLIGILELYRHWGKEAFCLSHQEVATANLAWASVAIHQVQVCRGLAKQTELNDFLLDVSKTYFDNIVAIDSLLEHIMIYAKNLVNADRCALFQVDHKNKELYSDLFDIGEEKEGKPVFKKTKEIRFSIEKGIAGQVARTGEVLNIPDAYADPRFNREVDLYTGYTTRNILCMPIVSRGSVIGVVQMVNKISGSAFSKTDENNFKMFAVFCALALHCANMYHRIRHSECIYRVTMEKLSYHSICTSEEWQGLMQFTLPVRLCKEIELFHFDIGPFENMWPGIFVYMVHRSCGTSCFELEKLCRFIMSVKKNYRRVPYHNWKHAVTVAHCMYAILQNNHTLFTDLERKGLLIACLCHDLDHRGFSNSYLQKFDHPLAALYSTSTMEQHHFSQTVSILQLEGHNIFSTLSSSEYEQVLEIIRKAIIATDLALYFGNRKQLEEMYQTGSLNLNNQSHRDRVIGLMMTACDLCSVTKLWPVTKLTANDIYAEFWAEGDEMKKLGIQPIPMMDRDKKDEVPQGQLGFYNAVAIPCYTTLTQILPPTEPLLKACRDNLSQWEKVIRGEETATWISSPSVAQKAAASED

Row | SMILES | Ki [nM]
1 | Cc1nc([C@@H]2C[C@H]2c2nc3ccccc3n2C)cc(-n2nc(C)nc2C2CCN(C)CC2)n1 [Cpd 96, 1-methyl-2-[(1R,2R)-2-{2-methyl-6-[3-methyl-5-(1-methylpiperidin-4-yl)-1H-1,2,4-triazol-1-yl]pyrimidin-4-yl}cyclopropyl]-1H-benzimidazole] | 3.9
2 | Cc1nc(C2CC2c2nc3ccccc3n2C)cc(-n2nc(C)nc2C(C)C)n1 (centres unmarked) [Cpd 56, 2-(2-(6-(5-isopropyl-3-methyl-1H-1,2,4-triazol-1-yl)-2-methylpyrimidin-4-yl)cyclopropyl)-1-methyl-1H-benzo[d]imidazole] | 1.7
3 | Cc1nc(OCc2ccc3ccccc3n2)cc(-n2nc(C)nc2Cc2nc(C)sc2C)n1 [Cpd 9, 2,5-dimethyl-4-((3-methyl-1-(2-methyl-6-(quinolin-2-ylmethoxy)pyrimidin-4-yl)-1H-1,2,4-triazol-5-yl)methyl)thiazole] | 62
4 | Cc1nc([C@H]2C[C@@H]2c2nc3ccccc3n2CCF)cc(-n2nc(C)nc2C)n1 [Cpd 102, 2-{(1S,2S)-2-[6-(3,5-dimethyl-1H-1,2,4-triazol-1-yl)-2-methylpyrimidin-4-yl]cyclopropyl}-1-(2-fluoroethyl)-1H-benzimidazole] | > 75
5 | Cc1nc(C)n(-c2cc([C@H]3C[C@@H]3c3nc4ccccc4n3C)nc(N3CCNCC3)n2)n1 (relative stereo) [Cpd 126, trans-2-{2-[6-(3,5-dimethyl-1H-1,2,4-triazol-1-yl)-2-piperazin-1-ylpyrimidin-4-yl]cyclopropyl}-1-methyl-1H-benzimidazole] | 2
6 | Cc1nc([C@H]2C[C@@H]2c2nc3ccccc3n2CCF)cc(-n2nc(C)nc2C)n1 [Cpd 103, 2-{(1S,2S)-2-[6-(3,5-dimethyl-1H-1,2,4-triazol-1-yl)-2-methylpyrimidin-4-yl]cyclopropyl}-1-(2-fluoroethyl)-1H-benzimidazole] | 2.9
7 | COc1ccc(Cc2nc(C)nn2-c2cc([C@@H]3C[C@H]3c3nc4ccccc4[nH]3)nc(C)n2)cc1OC [Cpd 26, 2-((1R,2R)-2-(6-(5-(3,4-dimethoxybenzyl)-3-methyl-1H-1,2,4-triazol-1-yl)-2-methylpyrimidin-4-yl)cyclopropyl)-1H-benzo[d]imidazole] | 0.005
8 | Cc1ccc(C2CC2c2cc(-n3nc(C)nc3Cc3ccccc3)nc(C)n2)nc1 (centres unmarked) [Cpd 49, 4-(5-benzyl-3-methyl-1H-1,2,4-tiazol-1-yl)-2-methyl-6-(2-(5-methylpyridin-2-yl)cyclopropyl)pyrimidine] | 0.21
9 | Cc1nc(C2CC2c2nc3cccc(C)c3[nH]2)cc(-n2nc(C)nc2C)n1 (centres unmarked) [Cpd 55, 2-(2-(6-(3,5-dimethyl-1H-1,2,4-triazol-1-yl)-2-methylpyrimidin-4-yl)cyclopropyl)-7-methyl-1H-benzo[d]imidazole] | 16.8
10 | Cc1nc(C)n(-c2cc([C@H]3C[C@@H]3c3nc4ccccc4n3C)nc(C(F)(F)F)n2)n1 (relative stereo) [Cpd 109, trans-2-{2-[6-(3,5-dimethyl-1H-1,2,4-triazol-1-yl)-2-(trifluoromethyl)pyrimidin-4-yl]cyclopropyl}-1-methyl-1H-benzimidazole] | 1.4
11 | Cc1nc([C@@H]2C[C@H]2c2nc3ccccc3n2CC2CCCCO2)cc(-n2nc(C)nc2C)n1 (stereo in doubt) [Cpd 70, 2-{2-[6-(3,5-dimethyl-1H-1,2,4-triazol-1-yl)-2-methylpyrimidin-4-yl]cyclopropyl}-1-(tetrahydro-2H-pyran-2-ylmethyl)-1H-benzimidazole] | 6
12 | Cc1nc([C@H]2C[C@@H]2c2nc3ncccc3n2C)cc(-n2nc(C)nc2C)n1 (stereo in doubt) [Cpd 80, 2-{2-[6-(3,5-dimethyl-1H-1,2,4-triazol-1-yl)-2-methylpyrimidin-4-yl]cyclopropyl}-1-methyl-1H-imidazo[4,5-b]pyridine] | > 75
13 | COc1ccc2nc(C3CC3c3cc(-n4nc(C)nc4C)nc(C)n3)[nH]c2c1 (centres unmarked) [Cpd 59, 2-(2-(6-(3,5-dimethyl-1H-1,2,4-triazol-1-yl)-2-methylpyrimidin-4-yl)cyclopropyl)-6-methoxy-1H-benzo[d]imidazole] | 30.5
14 | CCc1nc(CC)n(-c2cc([C@@H]3C[C@H]3c3nc4ccccc4n3C)nc(C)n2)n1 [Cpd 106, 2-{(1R,2R)-2-[6-(3,5-diethyl-1H-1,2,4-triazol-1-yl)-2-methylpyrimidin-4-yl]cyclopropyl}-1-methyl-1H-benzimidazole] | 2.8
15 | Cc1nc(C)n(-c2cc([C@@H]3C[C@H]3c3nc4ccccc4n3C)nc(OCC3CCO3)n2)n1 (stereo partly drawn) [Cpd 138, 2-((1R,2R)-2-(6-(3,5-dimethyl-1H-1,2,4-triazol-1-yl)-2-(oxetan-2-ylmethoxy)pyrimidin-4-yl)cyclopropyl)-1-methyl-1H-benzo[d]imidazole] | 1.3
16 | Cc1nc(C2CC2c2nnc(C)o2)cc(-n2nc(C)nc2C)n1 (centres unmarked) [Cpd 39, 3,5-dimethyl-1-(2-methyl-6-(2-(5-methyl-1,3,4-oxadiazol-2-yl)cyclopropyl)pyrimidin-4-yl)-1H-1,2,4-triazol-4-ium] | 918
17 | Cc1nc([C@H]2C[C@@H]2c2nc3ccccc3[nH]2)cc(-n2nc(C)nc2C)n1 [Cpd 90, 2-{(1S,2S)-2-[6-(3,5-dimethyl-1H-1,2,4-triazol-1-yl)-2-methylpyrimidin-4-yl]cyclopropyl}-1H-benzimidazole] | 38
18 | Cc1nc(C2CC2c2nc3ccc(OC(F)F)cc3[nH]2)cc(-n2nc(C)nc2C)n1 (centres unmarked) [Cpd 60, 6-(difluoromethoxy)-2-(2-(6-(3,5-dimethyl-1H-1,2,4-triazol-1-yl)-2-methylpyrimidin-4-yl)cyclopropyl)-1H-benzo[d]imidazole] | 58.2
19 | CO[C@@H](C)c1nc(C)nn1-c1cc([C@@H]2C[C@H]2c2nc3ccccc3n2C)nc(C)n1 [Cpd 95, 2-[(1R,2R)-2-(6-{5-[(1S)-1-methoxyethyl]-3-methyl-1H-1,2,4-triazol-1-yl}-2-methylpyrimidin-4-yl)cyclopropyl]-1-methyl-1H-benzimidazole] | 2.1
20 | COc1ccc(Cc2nc(C)nn2-c2cc(C#Cc3ccc4ccccc4n3)nc(C)n2)nc1OC [Cpd 7, 2-((6-(5-((5,6-dimethoxypyridin-2-yl)methyl)-3-methyl-1H-1,2,4-triazol-1-yl)-2-methylpyrimidin-4-yl)ethynyl)quinoline] | 0.073
21 | Cc1nc(C2CC2c2nc3cc(F)c(F)cc3[nH]2)cc(-n2nc(C)nc2C)n1 (centres unmarked) [Cpd 54, 2-(2-(6-(3,5-dimethyl-1H-1,2,4-triazol-1-yl)-2-methylpyrimidin-4-yl)cyclopropyl)-5,6-difluoro-1H-benzo[d]imidazole] | 25.1
22 | Cc1nc([C@@H]2C[C@H]2c2nc3ccccc3n2C)cc(-n2nc(C)nc2CF)n1 [Cpd 93, 2-[(1R,2R)-2-{6-[5-(fluoromethyl)-3-methyl-1H-1,2,4-triazol-1-yl]-2-methylpyrimidin-4-yl}cyclopropyl]-1-methyl-1H-benzimidazole] | 3.1
23 | COc1ccc(Cc2nc(C)nn2-c2cc(C#Cc3ccc4ccccc4n3)nc(C)n2)cc1OC [Cpd 2, 2-((6-(5-(3,4-dimethoxybenzyl)-3-methyl-1H-1,2,4-triazol-1-yl)-2-methylpyrimidin-4-yl)ethynyl)quinoline] | 0.023
